# According to patent US7183255B2, “Method for stabilizing blood pressure in hemodialysis subjects” (Intradialytic Pharmaceuticals, priority 2003, dated 2007):
# “And” between values parts separate entries of the source, which are not always exact repeats. Equal values may be shown once. “Also recorded” adds a separate entry of the source.
# Legend:
# Format in all cases: in vivo, human
# [1] = test system: ESRD patients during hemodialysis; assay: Fluids needed to maintain blood pressure and weight lost during hemodialysis with AVP, 5 patients (Example 1, FIG. 6)
# Experimental: (§1) Healthy controls and patients with end-stage renal disease (e.g. defined as creatinine clearance of less than 10 ml/min) were studied. The studies were conducted on regularly scheduled hemodialysis days. The duration of hemodialysis remained the same as that prescribed prior to the study period. AVP or placebo (normal saline) was administered at a constant rate of 0.15, 0.3 or o.6 mU/kg/min through a venous line (controls) or through the venous limb of the dialysis circuit (hemodialysis patients). The patient's hemodialysis prescription remained unchanged except for the administration of AVP or placebo. Intradialytic hypotension was treated in the customary manner with the infusion of isotonic and hypertonic fluids.
# AVP Administration allows more fluid removal. […] Dialysis during the administration of AVP resulted both in a decreased in the amount of intravenous fluids needed to maintain blood pressure and in a greater decrease in weight.
# The amount of fluids to maintain blood pressure during dialysis and the weight decrease were as given below: […]
# [2] = test system: patients with end-stage renal disease; assay: Systolic arterial pressure during AVP infusion in ESRD patients off dialysis (Example 1); settings: for systolic arterial blood pressure: ESRD, n=12, M ± SD
# Experimental: as §1
# (§2) Serum AVP levels were determined by a radioimmunoassay technique. Blood pressure was measured with a cuff-type sphygmomanometer at 20 minute intervals.
# (§3) We discovered that patients with ERSD are hypersensitive to vasopressin's pressor action.
# (§4) The administration of exogenous AVP to patients with ESDR led to the discovery that these patients are hyper-responsive to the vascular effect of this hormone.
# [3] = Effect of hemodialysis on plasma vasopressin during constant vasopressin infusion (Example 3, Table 1); settings: for level at 1 h / level at 2 h / level at 0 h: human, plasma, iv, mean±SE; for level at 1 h: 1 h Dialysis; for level at 2 h: 2 h Dialysis; for level at 0 h: Start Dialysis
# Experimental: All patients were studied at regularly scheduled dialysis sessions. Patients underwent conventional hemodialysis with hollow fiber high flux polysulfone dialyzers on volumetric dialysis machines (Cobe Centrysystem 3, Gambro Renal Care Products, Inc., Lakewood, Colo.). Dialysis times were 3.5–4.5 hours. Blood flow was 300–400 mL/min and dialysate was delivered at 600 mL/min. The dialysis bath contained potassium, 2 mEq/L; calcium, 2.5 mEq/L; magnesium, 0.75 mEq/L; and bicarbonate, 40 mEq/L. In those patients who were prescribed dialysate sodium modeling and/or reduced dialysate temperature (35–37° C.) prior to the study, the parameters of these interventions were held constant throughout the study. Ultrafiltration was performed at a constant rate based on the target weight loss for that dialysis session. Oscillometric blood pressure and heart rate measurements were taken at 15–30 minute intervals.
# (§5) Plasma vasopressin concentration. Vasopressin in plasma was determined as previously described (Landry, D. W., H. R. Levin, et al. (1997). Circulation 95(5): 1122–5).
# (§6) Administration of vasopressin. In eight normal subjects and eight patients with ESRD off dialysis, 8-arginine vasopressin (vasopressin, American Pharmaceutical Partners, Schaumberg, Ill.) in normal saline was administered through an antecubital intravenous line. In eight patients with ESRD during hemodialysis, vasopressin was infused through the venous (blood return) limb of the dialysis circuit throughout the dialysis session at a rate of 0.15 or 0.3 mU·kg^−1·min^−1.
# Effect of hemodialysis on plasma vasopressin concentration during constant infusion of hormone. To determine whether hemodialysis removes vasopressin from plasma (Shimamoto, K., T. Ando, et al. (1977). J Clin Endocrinol Metab 45(4): 818–20; Rosansky, S. J., R. Rhinehart, et al. (1991). Clin Nephrol 35(4): 158–64), we examined the effect of the procedure on the steady state plasma concentration of hormone during constant infusion. Vasopressin was infused for >1 hour to obtain a stable plasma concentration, at which time hemodialysis was initiated.
# [4] = Plasma vasopressin during constant vasopressin infusion in normal subjects and ESRD patients (Example 3, FIG. 8); settings: normal subjects vs patients with ESRD
# Experimental: as §5, §6
# Effect of vasopressin administration on its plasma concentration in normal subjects and Patients with ESRD. Because the effect of renal failure on the clearance of plasma vasopressin has remained unresolved (Shade, R. E. and L. Share (1976). Endocrinology 99(5): 1199–206; Benmansour, M., M. Rainfray, et al. (1982). Eur J Clin Invest 12(6): 475–80; Argent, N. B., R. Wilkinson, et al. (1992). Clin Sci (Lond) 83(5): 583–7), we administered a constant infusion of hormone to normal subjects and to patients with ESRD and measured plasma levels.
# normal subjects = assay: Systolic arterial pressure during AVP infusion in normal subjects (Example 1); settings: for systolic arterial blood pressure: normals, n=12, M ± SD
# Experimental: as §1, §2, §3, §4
# [5] = hemodialysis with AVP, individual patients 1-5
# [6] = 0.15 mU/kg · min^−1, infusion 0.15 mU · kg^−1 · min^−1
# [7] = 0.3 mU/kg · min^−1, infusion 0.3 mU · kg^−1 · min^−1
structure (smiles),measurement,setting,value
"NC(=O)CC[C@@H]1NC(=O)[C@H](Cc2ccccc2)NC(=O)[C@H](Cc2ccc(O)cc2)NC(=O)[C@@H](N)CSSC[C@@H](C(=O)N2CCC[C@H]2C(=O)N[C@@H](CCCN=C(N)N)C(=O)NCC(N)=O)NC(=O)[C@H](CC(N)=O)NC1=O [AVP, 8-arginine vasopressin]",blood pressure stability and extra fluid removal,[1]; all patients on AVP (FIG. 6),the blood pressure was stable and extra fluid removal was possible
same,Fluids given to maintain blood pressure during dialysis,[1]; [5],0 mL
same,Weight lost,[1]; [5],2.8 Kg and 1.8 Kg and 2.2 Kg (2×) and 3.0 Kg
same,systolic arterial blood pressure,[2]; 30 minutes of AVP infusion,162 ± 30
same,systolic arterial blood pressure,[2]; 60 minutes of AVP infusion,161 ± 32
same,systolic arterial blood pressure,[2]; 90 minutes of AVP infusion,161 ± 28
same,systolic arterial blood pressure,[2]; 120 minutes of AVP infusion,150 ± 31
same,systolic arterial blood pressure,[2]; before infusion (baseline),153 ± 28
same,pressor action of AVP,"[2]; patients with end-stage renal disease, same dose as in normal subjects (FIG. 3B)",increases blood pressure; also recorded: increased systolic arterial blood pressure
same,level at 1 h,[3]; [6],0.025 ± 0.006 ng/mL
same,level at 2 h,[3]; [6],0.029 ± 0.006 ng/mL
same,level at 0 h,[3]; [6],0.026 ± 0.004 ng/mL
same,level at 1 h,[3]; [7],0.054 ± 0.006 ng/mL
same,level at 2 h,[3]; [7],0.052 ± 0.009 ng/mL
same,level at 0 h,[3]; [7],0.047 ± 0.006 ng/mL
same,change of plasma concentrations of vasopressin by hemodialysis,"[3]; steady state during constant infusion, hemodialysis initiated after >1 hour",not significantly changed
same,effect of renal failure on clearance of plasma vasopressin,[4],does not alter the clearance
same,pressor action of AVP,"normal subjects; normal subjects, same dose as in ESRD patients (FIG. 3A)",no pressure action
same,systolic arterial blood pressure,normal subjects; 30 minutes of AVP infusion,114 ± 10
same,systolic arterial blood pressure,normal subjects; 60 minutes of AVP infusion,113 ± 10
same,systolic arterial blood pressure,normal subjects; 90 minutes of AVP infusion,114 ± 10
same,systolic arterial blood pressure,normal subjects; 120 minutes of AVP infusion,113 ± 11
same,systolic arterial blood pressure,normal subjects; before infusion (baseline),115 ± 13
